These results are taken from PMC4414180, “SKI2162, an inhibitor of the TGF-β type I receptor (ALK5), inhibits radiation-induced fibrosis in mice” (Oncotarget, 2015).

One experiment has as its target T1, ALK1 (Homo sapiens, UniProt P37023).
T1 construct: GST/histidine tag; made in house; host or cells: insect cells
Description: ALK1 selectivity, radioisotope-based (33P) kinase assay. The format is biochemical. The conditions noted are these: Supplementary Table 1, unit inferred. The procedure: (§1) The kinase activity of ALK5, ALK1, and p38 MAPK were assessed by measuring radiolabelled phosphate (^33P) incorporation into casein. ALK1 and p38 MAPK are closely related to ALK5, and were used for comparison with ALK5 in a SKI2162 selectivity study. IC50 values were calculated from dose–response curves. […]
(§2) www.impactjournals.com/oncotarget/ Oncotarget, Advance Publications 2014 SUPPLEMENTARY METHODS AND MATERIALS
(§3) Cell culture and reagents ACC-3′ (reverse). All samples were normalized to A human keratinocyte cell line (HaCaT) and GAPDH and expressed as the fold induction. Relative an SV40-transformed human fibroblast cell line expression levels were calculated using the comparative (WI38VA13) were cultured in Minimum Essential threshold method. All reactions were done in triplicate.
(§4) Media (Gibco/Life Technologies, USA) or in Dulbecco’s Histopathologic evaluation and fibrosis-related Modified Eagle’s Medium (Gibco/Life Technologies, gene expression in RIF tissues USA), respectively, with 10% fetal bovine serum (Gibco/
(§5) Life Technologies, USA), in a humidified 5% CO2 The skin and soft tissue of the irradiated leg was […]

The next experiment addresses T2, p38 MAPK (Homo sapiens, UniProt Q16539).
T2 construct: GST/histidine tag; made in house; host or cells: insect cells
Put plainly: p38 MAPK selectivity, radioisotope-based (33P) kinase assay. The format is biochemical. The conditions noted are these: Supplementary Table 1, unit inferred. The procedure: as §1, §2, §3, §4, §5

T1 sequence (P37023 22-503, species assumed): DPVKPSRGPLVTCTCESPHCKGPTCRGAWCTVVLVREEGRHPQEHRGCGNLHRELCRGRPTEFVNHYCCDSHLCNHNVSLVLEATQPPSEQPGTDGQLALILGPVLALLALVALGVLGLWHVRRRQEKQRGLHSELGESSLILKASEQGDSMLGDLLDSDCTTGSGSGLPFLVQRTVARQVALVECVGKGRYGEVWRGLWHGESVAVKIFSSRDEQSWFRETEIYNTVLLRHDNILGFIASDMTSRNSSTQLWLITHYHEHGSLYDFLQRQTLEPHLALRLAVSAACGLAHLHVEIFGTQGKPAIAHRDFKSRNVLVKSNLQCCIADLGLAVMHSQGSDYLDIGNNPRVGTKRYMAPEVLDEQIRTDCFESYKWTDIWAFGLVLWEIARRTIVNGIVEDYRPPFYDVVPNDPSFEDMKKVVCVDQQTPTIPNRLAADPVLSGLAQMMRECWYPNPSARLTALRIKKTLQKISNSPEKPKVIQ
T2 sequence (Q16539 whole entry): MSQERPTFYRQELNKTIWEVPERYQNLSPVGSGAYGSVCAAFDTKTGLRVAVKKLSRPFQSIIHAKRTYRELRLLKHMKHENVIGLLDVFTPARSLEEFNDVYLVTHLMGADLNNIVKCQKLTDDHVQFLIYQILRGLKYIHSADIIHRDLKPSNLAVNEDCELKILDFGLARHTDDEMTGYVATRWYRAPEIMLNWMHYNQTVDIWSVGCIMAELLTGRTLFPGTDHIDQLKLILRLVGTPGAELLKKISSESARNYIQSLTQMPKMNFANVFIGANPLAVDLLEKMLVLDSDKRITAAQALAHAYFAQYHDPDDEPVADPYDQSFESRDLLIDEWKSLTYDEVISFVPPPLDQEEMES

For the compound `Cc1cccc(-c2nn3c(c2-c2ccnc4ccc(C(N)=O)cc24)CCC3)n1` [LY2157299], the IC50 (in general, the concentration needed to halve the response being measured) amounted to 9.9 µM on ALK1 and 379 nM against p38 MAPK.
